Reference: patent publication US6552089B1, “Method of treating or preventing alopecia” (priority 1992, dated 2003)
Several values for one entry are separate records, joined by “and”; a condition that tells them apart may be missing. Equal values may be shown once. Read-outs that look alike come from different tables or passages of the source.

Key:
[1] = tested on: arabinoside-C induced alopecia; assay: arabinoside-C induced alopecia in 8 day old rats, tellurate given i.p. (method of Hussein et al.); format: in vivo, Sprauge Dawley rats; details: for No. of subjects with alopecia grade 0 (no detectable alopecia) / No. of subjects with alopecia grade 1+ (mild, hair loss <50%) / No. of subjects with alopecia grade 2+ (moderately severe, hair loss >50%) / No. of subjects with alopecia grade 3+ (total or virtually total, hair loss >79%) / effect on alopecia of a tellurate regimen: rats; for No. of subjects with alopecia grade 0 (no detectable alopecia) / No. of subjects with alopecia grade 1+ (mild, hair loss <50%) / No. of subjects with alopecia grade 2+ (moderately severe, hair loss >50%) / No. of subjects with alopecia grade 3+ (total or virtually total, hair loss >79%): day 9
Procedure: 28, 1990, pp. 1564-1566. […] The cycle of treatment lasted 7 days. […] A second experiment was carried out using the same procedure which is outlined above.

[2] = tested on: arabinoside-C induced alopecia; assay: topical application in glycerin to back of arabinoside-C injected rats; format: in vivo; set-up: key to Grade of Alopecia: 0 = no alopecia; 1 = less than 20% alopecia; 2 = less than 50% alopecia; 3 = more than 50% alopecia; 4 = total alopecia; details: for Grade of Alopecia: arabinoside-C 25 mg/kg 2 h after each treatment
Procedure: A stock composition of 1 mg. of ammonium trichloro (O,O′-dioxoethylene) tellurate in 1 ml. of glycerin was prepared. The stock composition was diluted with glycerin to give the following concentrations per ml. so that the stated dose could be applied topically by application of 1 ml. of solution. The solution was applied to the entire back surface of rats once daily for a period of 7 days. Two hours after each treatment the rats were injected with 25 mg/kg of arabinoside-C once daily. Control rats were treated with a glycerin and injected with arabinoside-C.

[3] = tested on: alopecia under carboplatinum/etoposide chemotherapy; assay: phase II chemotherapy trial, alopecia score; format: in vivo, patients; details: Group II: tellurate 3 mg/m^2 three times a week plus carboplatinum/etoposide chemotherapy; 12 weeks after chemotherapy
Procedure: A phase II chemotherapy trial was carried out in patients having unresectable and metastatic non-small cell lung tumors. The chemotherapy was based on carboplatinum 300.0 mg/m^2/IV daily and etoposide 200.0 mg/m^2 on day 3, 5 and 7 for a total of 12 weeks of chemotherapy which was given to group I. In addition to the same chemotherapy, ammonium trichloro (O,O′-dioxoethylene)tellurate was given to Group II at a dose of 3 mg/m^2 three times a week starting two weeks before the chemotherapy and continued for 12 weeks after the chemotherapy. The alopecia of both groups was observed 12 weeks after the chemotherapy and was as follows: […]

[4] = tested on: alopecia which is induced by cyclophosphamide; details: rats
[5] = arabinoside-C 25 mg/kg daily ×7 days alone, first experiment
[6] = arabinoside-C 50 mg/kg i.p. ×7 days alone, first experiment
[7] = tellurate 0.5 mg/Kg IP daily ×7 days with arabinoside-C 25 mg/kg i.p., first experiment
[8] = tellurate 0.5 mg/Kg IP daily ×7 days with arabinoside-C 50 mg/kg i.p., first experiment
[9] = tellurate 0.5 mg/Kg IP every other day ×7 days with arabinoside-C 25 mg/kg i.p., first experiment
[10] = tellurate 0.5 mg/Kg IP every other day ×7 days with arabinoside-C 50 mg/kg i.p., first experiment
[11] = tellurate 0.5 mg/Kg IP every other day ×7 days with arabinoside-C 50 mg/kg i.p., second experiment
[12] = tellurate 0.5 mg/Kg IP daily ×7 days with cyclophosphamide 20 mg/kg i.p. ×7 days, listed as ammonium trichloro (0,0′-dioxoethylene) tellurate
[13] = cyclophosphamide 20 mg/kg i.p. ×7 days alone

With Nc1ccn([C@@H]2O[C@H](CO)[C@@H](O)[C@@H]2O)c(=O)n1 [arabinoside-C, reference compound] the “No. of subjects with alopecia grade 0 (no detectable alopecia)” value (“No. of subjects … (no detectable alopecia)” below) [1, 5] was 0, the “No. of subjects with alopecia grade 1+ (mild, hair loss <50%)” value (from here on “No. of subjects … (mild, hair loss <50%)”) [1, 5] was 0 and the “No. of subjects with alopecia grade 2+ (moderately severe, hair loss >50%)” value [1, 5] was 0. The “No. of subjects with alopecia grade 3+ (total or virtually total, hair loss >79%)” value [1, 5] was 3, the “No. of subjects with alopecia grade 3+ (total or virtually total, hair loss >79%)” value ([1]; arabinoside-C 25 mg/kg i.p. ×7 days alone, second experiment) was 8 and the “No. of subjects … (no detectable alopecia)” value [1, 6] was 0. The “No. of subjects … (mild, hair loss <50%)” value [1, 6] was 0, the “No. of subjects with alopecia grade 2+ (moderately severe, hair loss >50%)” value [1, 6] was 0 and the “No. of subjects with alopecia grade 3+ (total or virtually total, hair loss >79%)” value [1, 6] was 4. The “No. of subjects with alopecia grade 3+ (total or virtually total, hair loss >79%)” value ([1]; arabinoside-C 50 mg/kg i.p. ×7 days alone, second experiment) was 8, the “histological examination of the skin” value ([1]; arabinoside-C treated subjects) was “almost complete loss of hair follicles” and the alopecia ([2]; all control animals: glycerin topical, arabinoside-C 25 mg/kg once daily) was 100%.

For Cl[TeH]1(Cl)(Cl)OCCO1.N [ammonium-trichloro (O,O′-dioxoethylene) tellurate], the “effect on alopecia of a tellurate regimen” value ([1]; given daily) was “almost completely avoids alopecia”, the “effect on alopecia of a tellurate regimen” value ([1]; given every other day) was “provides some protection from alopecia” and the “histological examination of the skin” value ([1]; subjects treated with arabinoside-C and tellurate) was “no hair loss or reduced hair loss”. For the same compound, the “No. of subjects … (no detectable alopecia)” value [1, 7] was 0, the “No. of subjects … (mild, hair loss <50%)” value [1, 7] was 4 and the “No. of subjects with alopecia grade 2+ (moderately severe, hair loss >50%)” value [1, 7] was 0. For the same compound, the “No. of subjects with alopecia grade 3+ (total or virtually total, hair loss >79%)” value [1, 7] was 0, the “No. of subjects … (no detectable alopecia)” value ([1]; tellurate 0.5 mg/Kg IP daily ×7 days with arabinoside-C 25 mg/kg i.p., second experiment) was 6 and the “No. of subjects … (no detectable alopecia)” value [1, 8] was 0. For the same compound, the “No. of subjects … (mild, hair loss <50%)” value [1, 8] was 3, the “No. of subjects with alopecia grade 2+ (moderately severe, hair loss >50%)” value [1, 8] was 1 and the “No. of subjects with alopecia grade 3+ (total or virtually total, hair loss >79%)” value [1, 8] was 0. For the same compound, the “No. of subjects … (no detectable alopecia)” value ([1]; tellurate 0.5 mg/Kg IP daily ×7 days with arabinoside-C 50 mg/kg i.p., second experiment) was 6, the “No. of subjects … (no detectable alopecia)” value [1, 9] was 0 and the “No. of subjects … (mild, hair loss <50%)” value [1, 9] was 4. For the same compound, the “No. of subjects with alopecia grade 2+ (moderately severe, hair loss >50%)” value [1, 9] was 0, the “No. of subjects with alopecia grade 3+ (total or virtually total, hair loss >79%)” value [1, 9] was 0 and the “No. of subjects … (no detectable alopecia)” value ([1]; tellurate 0.5 mg/Kg IP every other day ×7 days with arabinoside-C 25 mg/kg i.p., second experiment) was 6. For the same compound, the “No. of subjects … (no detectable alopecia)” value [1, 10] was 0, the “No. of subjects … (mild, hair loss <50%)” value [1, 10] was 1 and the “No. of subjects with alopecia grade 2+ (moderately severe, hair loss >50%)” value [1, 10] was 3. The “No. of subjects with alopecia grade 3+ (total or virtually total, hair loss >79%)” value [1, 10] was 0, the “No. of subjects … (mild, hair loss <50%)” value [1, 11] was 1 and the “No. of subjects with alopecia grade 2+ (moderately severe, hair loss >50%)” value [1, 11] was 2. For the same compound, the “No. of subjects with alopecia grade 3+ (total or virtually total, hair loss >79%)” value [1, 11] was 3, the “Grade of Alopecia” value ([2]; 10 ug/rat topical in glycerin once daily 7 days) was 3 (3 = more than 50% alopecia) and the “Grade of Alopecia” value ([2]; 20 ug/rat topical in glycerin once daily 7 days) was 1 (1 = less than 20% alopecia). The “rats that showed 0% alopecia” value ([2]; 50 ug topical, arabinoside-C 25 mg/kg) was 100%, the “Grade of Alopecia” value ([2]; 50 ug/rat topical in glycerin once daily 7 days) was 0 and the “Grade of Alopecia” value ([2]; 100 ug/rat topical in glycerin once daily 7 days) was 2 (2 = less than 50% alopecia). For the same compound, the “Grade of Alopecia” value ([2]; 200 ug/rat topical in glycerin once daily 7 days) was 3 (3 = more than 50% alopecia), the “dose response of topical effect on alopecia” value ([2]; 10-200 ug/rat topical, arabinoside-C 25 mg/kg) was “A dose response effect was observed” and the “number with alopecia score 0” value [3] was 122. The “number with alopecia score I (casual alopecia)” value [3] was 26, the “number with alopecia score II (>50% alopecia)” value [3] was 40 and the “number with alopecia score III (<50% alopecia)” value [3] was 12. The “number with alopecia score IV (total alopecia)” value [3] was 0, the “percentage with alopecia score 0” value [3] was 61.00% and the “percentage with alopecia score I (casual alopecia)” value [3] was 13.00%. For the same compound, the “percentage with alopecia score II (>50% alopecia)” value [3] was 20.00%, the “percentage with alopecia score III (<50% alopecia)” value [3] was 6.00% and the “percentage with alopecia score IV (total alopecia)” value [3] was 0.00%. The “protection against cyclophosphamide induced alopecia” value ([4]; 0.5 mg/kg/i.p. in conjunction with cyclophosphamide) was “mild protection”, the “No. of subjects … (mild, hair loss <50%)” value ([4]; tellurate 0.5 mg/Kg IP daily ×7 days with cyclophosphamide 20 mg/kg i.p. ×7 days) was 4 and the “No. of subjects … (no detectable alopecia)” value [4, 12] was 2. The “No. of subjects … (mild, hair loss <50%)” value [4, 12] was 2 and the “No. of subjects with alopecia grade 2+ (moderately severe, hair loss >50%)” value [4, 12] was 1.

O=P1(N(CCCl)CCCl)NCCCO1 (centres unmarked) [cyclophosphamide, reference compound] was tested, and the “No. of subjects … (no detectable alopecia)” value [4, 13] was 1, the “No. of subjects … (mild, hair loss <50%)” value [4, 13] was 3 and 2 and the “No. of subjects … (mild, hair loss <50%)” value ([4]; cyclophosphamide 20 mg/kg i.p. ×7 days alone, listed as cyclosphosphamide) was 10.
